Key:
[1] = biological target: T1, mGlu5 receptor (Rattus norvegicus, UniProt P31424); assay: Radioligand binding assay at metabotropic glutamate receptor 5 in rat brain; settings: [3H]MPEP, rat forebrain membranes; read-out: affinity (Ki) for mGlu5 receptor
T1 construct: from tissue; host or cells: rat forebrain (cortex, striatum and hippocampus) membranes, male Sprague Dawley rats
Description: Radioligand Binding Assay at Metabotropic Glutamate Receptor 5 in Rat Brain.
a) Membrane preparation: male Sprague Dawley rats (200-300 g, Charles River, Italy) were killed by cervical dislocation and the forebrain (cortex, striatum and hippocampus) was homogenized (2×20 sec) in 50 vols of cold 50 mM Tris buffer pH 7.4, using a Politron homogenizer (Kinematica). Homogenates were centrifuged at 48000×g for 15 min, resuspended in 50 vols of the same buffer, incubated at 37° C. for 15 min and centrifuged and resuspended two more times. The final pellets were frozen and stored at −80° C. until use.
b) Binding assay: pellets from rat forebrain were resuspended in 100 vols of 20 mM HEPES, 2 mM MgCl2, 2 mM CaCl2, pH 7.4. The membranes were incubated in a final volume of 1 ml for 60 min at 25° C. with 4 nM [^3H]MPEP in the absence or presence of competing drugs. Non-specific binding was determined in the presence of 10 μM MPEP (Spooren W. et al., Trends Pharmacol Sci. 22, 331-337, 2001). The incubation was stopped by the addition of cold Tris buffer pH 7.4 and rapid filtration through 0.5% polyethyleneimine pretreated Filtermat 1204-401 (Wallac) filters. The filters were then washed with cold buffer and the radioactivity retained on the filters was counted by liquid scintillation spectrometry. […]

[2] = system: conscious rats; assay: Effect on cystometry in conscious rats (bladder volume capacity); format: in vivo, rat; settings: for MED (Minimal Effective Dose that induces statistically significant increase of bladder volume capacity): oral administration; for increase of bladder volume capacity: orally
Description: Male Sprague-Dawley rats [Crl: CD® (SD) IGS BR] of 300-400 g b.w. supplied by Charles River Italia were used. The animals were housed with free access to food and water and maintained on a forced 12-hour-light/12-hour-dark cycle at 22-24° C. of temperature, except during the experiment. To quantify urodynamic parameters in conscious rats, cystometrographic studies were performed according to the procedure previously reported (Guarneri et al., Pharmacol. Res. 24: 175, 1991).
Briefly, the rats were anaesthetised by intraperitoneal administration of 3 ml/kg of Equithensin solution (pentobarbital 30 mg/kg and chloral hydrate 125 mg/kg) and placed in a supine position. An approximately 10 mm long midline incision was made in the shaved and cleaned abdominal wall. The urinary bladder was gently freed from adhering tissues, emptied and then cannulated via an incision in the bladder body, using a polyethylene cannula (0.58 mm internal diameter, 0.96 mm external diameter) which was permanently sutured with silk thread. The cannula was exteriorised through a subcutaneous tunnel in the retroscapular area, where it was connected to a plastic adapter in order to avoid the risk of removal by the animal. For drug testing, the rats were utilised one day after implantation.
On the day of the experiment, the rats were placed in modified Bollman cages, i.e., restraining cages that were large enough to permit the rats to adopt a normal crouched posture, but narrow enough to prevent turning around. […] The intraluminal-pressure signal during infusion of saline into the bladder (cystometrogram) was continuously recorded on a polygraph (Rectigraph-8K San-ei with BM614/2 amplifier from Biomedica Mangoni) or stored on PC by data acquisition system (PowerLab, Chart 4 software, AD Instruments). From the cystometrogram, bladder volume capacity (BVC) was evaluated. […] Basal BVC value was evaluated as the mean of the values observed in the cystometrograms recorded in an initial period of 30-60 minutes. […] The bladder infusion restarted and changes in BVC were evaluated from the mean values obtained in the cystometrograms observed during 1, 2, and 3 hours after treatment. […]
Each experimental group was composed of 4-11 animals. All data were expressed as mean±standard error. The percent change of BVC versus the basal value, as well as Δ value (difference in ml) of BVC (BVC at time “x” minus basal value), were also evaluated for each rat/time. […]
Statistical analysis on BVC values, as well as on Δ values, was performed by S.A.S./STAT software, version 6.12. The difference between vehicle and active treatment effect was evaluated on Δ values of BVC, whereas the difference between the values at different times versus the basal values was evaluated on original BVC data.

T1 sequence (P31424 21-1203): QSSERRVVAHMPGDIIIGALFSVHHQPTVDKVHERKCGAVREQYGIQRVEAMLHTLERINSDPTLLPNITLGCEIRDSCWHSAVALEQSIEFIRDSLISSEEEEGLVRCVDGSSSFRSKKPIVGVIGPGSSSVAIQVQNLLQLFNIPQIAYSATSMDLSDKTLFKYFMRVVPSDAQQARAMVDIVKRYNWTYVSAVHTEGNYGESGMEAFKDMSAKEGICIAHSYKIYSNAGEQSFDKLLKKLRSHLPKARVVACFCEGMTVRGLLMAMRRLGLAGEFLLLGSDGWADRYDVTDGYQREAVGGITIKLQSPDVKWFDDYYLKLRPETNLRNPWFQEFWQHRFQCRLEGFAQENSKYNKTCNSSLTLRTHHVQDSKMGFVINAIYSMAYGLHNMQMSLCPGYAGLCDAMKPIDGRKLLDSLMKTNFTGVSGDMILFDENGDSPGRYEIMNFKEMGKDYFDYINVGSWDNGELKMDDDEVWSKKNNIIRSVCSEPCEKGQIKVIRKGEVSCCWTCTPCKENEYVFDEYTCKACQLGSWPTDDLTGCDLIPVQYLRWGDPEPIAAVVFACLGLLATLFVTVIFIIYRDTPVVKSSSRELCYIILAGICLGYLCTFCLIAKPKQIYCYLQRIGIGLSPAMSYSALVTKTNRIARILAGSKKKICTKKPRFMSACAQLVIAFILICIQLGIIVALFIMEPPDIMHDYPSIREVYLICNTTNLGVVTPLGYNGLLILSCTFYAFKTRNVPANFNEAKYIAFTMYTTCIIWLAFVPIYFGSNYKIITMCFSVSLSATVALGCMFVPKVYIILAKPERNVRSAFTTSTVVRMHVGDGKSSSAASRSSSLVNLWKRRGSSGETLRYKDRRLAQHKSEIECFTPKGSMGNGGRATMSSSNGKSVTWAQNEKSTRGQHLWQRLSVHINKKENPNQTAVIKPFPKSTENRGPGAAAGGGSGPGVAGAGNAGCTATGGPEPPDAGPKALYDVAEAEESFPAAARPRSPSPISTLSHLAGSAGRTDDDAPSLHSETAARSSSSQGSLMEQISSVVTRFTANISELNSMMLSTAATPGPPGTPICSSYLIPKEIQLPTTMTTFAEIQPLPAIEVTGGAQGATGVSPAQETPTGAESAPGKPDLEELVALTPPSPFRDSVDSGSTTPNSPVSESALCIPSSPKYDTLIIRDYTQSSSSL

Ki [1]	SMILES	MED (Minimal Effective Dose that induces statistically significant increase of bladder volume capacity) [2]	increase of bladder volume capacity ([2]; 1 mg/kg)	increase of bladder volume capacity ([2]; 3 mg/kg, statistically significant from the vehicle group after 3 hours from treatment)
1.49 nM	CON(C)C(=O)N1CCC2(CC(C#Cc3cccc(Cl)c3)=NO2)C1 (stereo not drawn) [Example 110, 7-[2-(3-Chlorophenyl)ethynyl]-N-methoxy-N-methyl-9-oxa-3,8-diazaspiro[4.4]non-7-ene-3-carboxamide]			
	Clc1cccc(C#CC2=NOC3(CCC4(CCCO4)CC3)C2)c1 (single isomer, unassigned) [Example 78, 3-[(3-Chlorophenyl)ethynyl]-1,9-dioxa-2-azadispiro[4.2.4.2]tetradec-2-ene]	3 mg/kg		
	Cc1nc(C#Cc2cccnc2)cs1 [MTEP]	3 mg/kg	only a slight increase	sustained increase
3.88 nM	Cc1ccc([N+](=O)[O-])c(N2CCC3(CC2)CC(C#Cc2cccc(Cl)c2)=NO3)n1 [Example 12, 3-[(3-Chlorophenyl)ethynyl]-8-(6-methyl-3-nitropyridin-2-yl)-1-oxa-2,8-diazaspiro[4.5]dec-2-ene]			
